Assay results taken from patent US12583835B2, “Crystal form of nitroxoline prodrug, pharmaceutical composition containing same, and preparation method therefor and application thereof” (Jiangsu Yahong Meditech Co., Ltd., priority 2020, dated 2026).

Experiments:
[1] = Pharmacokinetic assay in dogs; format: in vivo; conditions: beagles
Description: Nitroxoline is mainly metabolized by Phase II metabolism in the liver with a high metabolism rate, thus the in vivo half-life is short. In this experiment, after a single intravenous or oral administration of nitroxoline and the compound obtained in Example 1 to dogs, the changes in the concentration of the compound nitroxoline in dog plasma were studied, so as to evaluate the in vivo pharmacokinetic behaviors of nitroxoline and the compound obtained in Example 1.
Male beagles (Beijing Marshall Bioresources Co., Ltd., laboratory animal production license No.: SCXK (Beijing) 2016-0001, laboratory animal certificate No.: 11400600001728), 3 beagles per group, weight 10-13 kg, 20-22 months old, were fasted overnight before drug administration with free access to water, and food was given 4 hours after drug administration. The compound to be tested was put into an EP tube, dimethyl sulfoxide, Solutol® and sterile water for injection (the volume ratio of the three was 1:2:17, v:v:v) were added, and the EP tube was sonicated for 20 minutes to fully dissolve the compound (formulation concentration of the compound: 0.005 mmol/mL). The intravenous dose was 0.01 mmol/kg, and the oral dose was 0.1 mmol/kg. 0.3 ml of whole blood was collected from the jugular vein before drug administration (0 hour) and 0.0833, 0.25, 0.5, 0.75, 1, 2, 4, 6, 8, 10 and 12 hours after drug administration (the sampling points were adjusted according to the situation) and placed in a centrifuge tube containing EDTA-K2 (Aldrich Reagents) for anticoagulation, which was placed in crushed ice after sample collection. The tube was centrifuged at 1530 g for 10 minutes within 0.5 hours of sample collection. All clean plasma were isolated and placed in another clean centrifuge tube, which was placed in a −20° C. refrigerator until testing.
A series of solutions for standard curve was prepared. To 10 μL of solutions for standard curve and samples was added 1000 μL of internal standard working solution (a solution of 5 ng/mL verapamil (Aldrich Reagents), 50 ng/mL glibenclamide (Aldrich Reagents) and 50 ng/mL diclofenac (Aldrich Reagents) in acetonitrile) was added, and the resulting solution was vortexed for 5 minutes. After centrifuging at 4° C., 3700 rpm for 10 minutes, 60 μL of the supernatant was collected into a sample tube and mixed well with 120 μL of water, and 10 μL of the mixed solution was injected into the LC/MS system for determination. Pharmacokinetic parameters were calculated using WinNonlin V6.2 non-compartmental model.

[2] = Stability in liver microsome (mouse); format: in vitro ADME; conditions: 2 μM, 30 minutes, 37° C.
Description: (§1) Experimental instruments: thermostatic oscillator (SHA-B, Guohua Instrument); centrifuge (5810R, Eppendorf), mass spectrometer (API4000, Applied), liquid chromatography (LC-30AD, Shimadzu); sampler (CTC Analytics AG System, CTC).
(§2) Experimental procedures: to 100 mM phosphate buffer was added 25 μg/mL alamethicin (Aldrich Reagents), 5 mM magnesium chloride and 0.5 mg/mL microsomes (XENOTECH) to prepare a reaction solution without coenzymes. To a portion of the reaction solution was added 1 mM reduced nicotinamide adenine dinucleotide phosphate (Aldrich Reagents) and 5 mM uridine diphosphate glucuronic acid (Aldrich Reagents) to prepare a reaction solution with coenzymes. […] Immediately after mixing well, 50 μL of the solution was collected as the 0-minute sample, and another 50 μL was collected after 30 minutes of incubation of the remaining sample at 37° C. The proteins in all collected samples were immediately precipitated, and the supernatants were collected by centrifugation, in which the compound concentrations were determined by LC/MS/MS.

[3] = Stability in liver microsome (dog); format: in vitro ADME; conditions: 2 μM, 30 minutes, 37° C.
Description: as §1, §2

[4] = Stability in liver microsome (human); format: in vitro ADME; conditions: 2 μM, 30 minutes, 37° C.
Description: as §1, §2

[5] = Stability in liver microsome (rat); format: in vitro ADME; conditions: 2 μM, 30 minutes, 37° C.
Description: as §1, §2

AUC0-inf of nitroxoline in plasma ([1]; intravenous 0.01 mmol/kg): 1290 ng*hmL^−1
AUC0-inf of nitroxoline in plasma ([1]; oral 0.1 mmol/kg): 8750 ng*hmL^−1
Percentage (%) of remaining compound in mouse liver microsomes ([2]; With coenzyme): 0.09%
Percentage (%) of remaining compound in mouse liver microsomes ([2]; Without coenzyme): 49.07%
Percentage (%) of remaining compound in dog liver microsomes ([3]; With coenzyme): 33.13%
Percentage (%) of remaining compound in dog liver microsomes ([3]; Without coenzyme): 53.50%
Percentage (%) of remaining compound in human liver microsomes ([4]; With coenzyme): 26.92%
Percentage (%) of remaining compound in human liver microsomes ([4]; Without coenzyme): 59.42%
Percentage (%) of remaining compound in rat liver microsomes ([5]; With coenzyme): 3.64%
Percentage (%) of remaining compound in rat liver microsomes ([5]; Without coenzyme): 46.82%
SMILES: CC(C)C(=O)N1CCC[C@H]1C(=O)OCOc1ccc([N+](=O)[O-])c2cccnc12 [Compound obtained in Example 1, ((5-nitroquinolin-8-yl)oxy)methyl-isobutyryl-L-prolinate]
